# Laboratory results taken from PubChem BioAssay (NCI).
#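 Abbreviation: GI50, concentration required for 50% inhibition of growth. The concentration for full growth arrest is given as TGI.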
# Key:
# Experiment in all cases: NCI-60 cell line screen, 384-well format
# [1] = system: MCF7 breast
# [2] = system: UACC-62 melanoma
# [3] = system: SK-MEL-5 melanoma
# [4] = system: NCI-H23 lung
# [5] = system: SNB-19 CNS
# [6] = system: T-47D breast
# [7] = system: BT-549 breast
# [8] = system: ACHN renal
# [9] = system: HCT-116 colon
# [10] = system: HL-60(TB) leukemia
# [11] = system: SK-OV-3 ovarian
# [12] = system: RXF 393 renal
# [13] = system: NCI-H322M lung
# [14] = system: SF-295 CNS
# [15] = system: K-562 leukemia
# [16] = system: MALME-3M melanoma
# [17] = system: OVCAR-4 ovarian
# [18] = system: LOX IMVI melanoma
# [19] = system: SK-MEL-2 melanoma
# [20] = system: M14 melanoma
# [21] = system: HCC-2998 colon
# [22] = system: A549 NSCLC
# [23] = system: MDA-MB-435 melanoma
# [24] = system: DU-145 prostate
# [25] = system: SN12C renal
# [26] = system: HT29 colon
# [27] = system: NCI-H522 lung
# [28] = system: HOP-92 NSCLC
# [29] = system: MDA-MB-468 breast
# [30] = system: HS 578T breast
# [31] = system: EKVX NSCLC
# [32] = system: UO-31 renal
# [33] = system: OVCAR-5 ovarian
# [34] = system: SR leukemia
# [35] = system: U251 glioblastoma
# [36] = system: NCI-H226 lung
# [37] = system: MDA-MB-231 breast
# [38] = system: SK-MEL-28 melanoma
# [39] = system: OVCAR-3 ovarian
# [40] = system: TK-10 renal
# [41] = system: UACC-257 melanoma
# [42] = system: MOLT-4 leukemia
# [43] = system: CAKI-1 renal
# [44] = system: SNB-75 CNS
# [45] = system: NCI-H460 NSCLC
# [46] = system: HCT-15 colon
# [47] = system: KM12 colon
# [48] = system: 786-0 renal
# [49] = system: SW-620 colon
# [50] = system: NCI/ADR-RES ovarian
# [51] = system: IGROV1 ovarian
# [52] = system: HOP-62 NSCLC
# [53] = system: COLO 205 colon
# [54] = system: PC-3 prostate
# [55] = system: RPMI-8226 leukemia
# [56] = system: SF-539 CNS
# [57] = system: SF-268 CNS
# [58] = system: CCRF-CEM leukemia
# [59] = system: A498 renal
smiles,measurement,setting,value
CC1(C)CNc2cc(NC(=O)c3cccnc3NCc3ccncc3)ccc21,GI50,[1],23.3 µM
same,TGI,[1],> 100 µM
same,GI50,[2],19.1 µM
same,TGI,[2],97.7 µM
same,GI50,[3],13.1 µM
same,TGI,[3],28.3 µM
same,GI50,[4],25.8 µM
same,TGI,[4],82.9 µM
same,GI50,[5],44.8 µM
same,TGI,[5],> 100 µM
same,GI50,[6],14.9 µM
same,TGI,[6],47.3 µM
same,GI50,[7],26.1 µM
same,TGI,[7],65.5 µM
same,GI50,[8],10.7 µM
same,TGI,[8],64.5 µM
same,GI50,[9],46.7 µM
same,TGI,[9],> 100 µM
same,GI50,[10],25.5 µM
same,TGI,[10],42.4 µM
same,GI50,[11],18.6 µM
same,TGI,[11],61.4 µM
same,GI50,[12],11 µM
same,TGI,[12],29.6 µM
same,GI50,[13],33.4 µM
same,TGI,[13],> 100 µM
same,GI50,[14],35.7 µM
same,TGI,[14],> 100 µM
same,GI50,[15],12.7 µM
same,TGI,[15],52.5 µM
same,GI50,[16],20.1 µM
same,TGI,[16],66.5 µM
same,GI50,[17],13.7 µM
same,TGI,[17],60.6 µM
same,GI50,[18],24.9 µM
same,TGI,[18],52.5 µM
same,GI50,[19],39.2 µM
same,TGI,[19],58.3 µM
same,GI50,[20],24.9 µM
same,TGI,[20],> 100 µM
same,GI50,[21],38 µM
same,TGI,[21],> 100 µM
same,GI50,[22],31.2 µM
same,TGI,[22],> 100 µM
same,GI50,[23],29.4 µM
same,TGI,[23],98.4 µM
same,GI50,[24],21.3 µM
same,TGI,[24],> 100 µM
same,GI50,[25],30.4 µM
same,TGI,[25],> 100 µM
same,GI50,[26],24.6 µM
same,TGI,[26],66.8 µM
same,GI50,[27],20.4 µM
same,TGI,[27],50.2 µM
same,GI50,[28],21.1 µM
same,TGI,[28],83.3 µM
same,GI50,[29],9.35 µM
same,TGI,[29],25.1 µM
same,GI50,[30],15.8 µM
same,TGI,[30],40.5 µM
same,GI50,[31],17.9 µM
same,TGI,[31],48.6 µM
same,GI50,[32],25 µM
same,TGI,[32],85.5 µM
same,GI50,[33],52.9 µM
same,TGI,[33],> 100 µM
same,GI50,[34],11.4 µM
same,TGI,[34],24.3 µM
same,GI50,[35],46 µM
same,TGI,[35],> 100 µM
same,GI50,[36],9.96 µM
same,TGI,[36],31.4 µM
same,GI50,[37],24.5 µM
same,TGI,[37],82 µM
same,GI50,[38],37.8 µM
same,TGI,[38],> 100 µM
same,GI50,[39],14.8 µM
same,TGI,[39],40.6 µM
same,GI50,[40],14.2 µM
same,TGI,[40],> 100 µM
same,GI50,[41],30.9 µM
same,TGI,[41],> 100 µM
same,GI50,[42],12.7 µM
same,TGI,[42],26.5 µM
same,GI50,[43],19.4 µM
same,TGI,[43],> 100 µM
same,GI50,[44],22.1 µM
same,TGI,[44],80.9 µM
same,GI50,[45],25.1 µM
same,TGI,[45],> 100 µM
same,GI50,[46],16.6 µM
same,TGI,[46],44.7 µM
same,GI50,[47],38.8 µM
same,TGI,[47],> 100 µM
same,GI50,[48],35.8 µM
same,TGI,[48],> 100 µM
same,GI50,[49],49.6 µM
same,TGI,[49],> 100 µM
same,GI50,[50],17.8 µM
same,TGI,[50],42.7 µM
same,GI50,[51],12.5 µM
same,TGI,[51],40.3 µM
same,GI50,[52],70.9 µM
same,TGI,[52],> 100 µM
same,GI50,[53],31.6 µM
same,TGI,[53],> 100 µM
same,GI50,[54],43.2 µM
same,TGI,[54],> 100 µM
same,GI50,[55],16 µM
same,TGI,[55],41.6 µM
same,GI50,[56],14.3 µM
same,TGI,[56],> 100 µM
same,GI50,[57],25.2 µM
same,TGI,[57],88.9 µM
same,GI50,[58],12.7 µM
same,TGI,[58],27.6 µM
same,GI50,[59],25.6 µM
same,TGI,[59],> 100 µM
